Source: patent US20240246905A1 (University of Leicester, priority 2021, published 2024)
Values after ≈ are worked out from the molar mass of the structure shown.

Legend:
[1] = tested on: MSSA 476; experiment: Disc diffusion (Kirby-Bauer), zone of inhibition; assay type: cell-based, Staphylococcus aureus; settings: Staphylococcus aureus, 500 μg/mL, '/' = no zone, read-out: Zone of inhibition
Procedure, shortened: (§1)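 Zones of inhibition recorded after 24 h at 37 °C on Mueller-Hinton agar. Agar was inoculated with 1 in 200 diluted 18 h broth cultures, and discs carried 50 μL of antibiotic. Method follows CLSI 2017 disc diffusion.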

[2] = tested on: MRSA 252; experiment: Disc diffusion (Kirby-Bauer), zone of inhibition; assay type: cell-based, Staphylococcus aureus; settings: Staphylococcus aureus, 500 μg/mL, '/' = no zone, read-out: Zone of inhibition
Procedure, shortened: as §1

[3] = tested on: MSSA 476; experiment: MIC, broth micro-dilution; assay type: cell-based, Staphylococcus aureus; settings: Staphylococcus aureus, MSSA, read-out: MIC
Procedure, shortened: (§2)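 S. aureus cultures grown 18 h in TSB were used to inoculate twofold antibiotic series in TSB at 5×10^5 CFU/mL, per CLSI guidelines. Growth curves read by optical density at 12-min intervals for 18 h at 37 °C were fitted sigmoidally to calculate MIC.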

[4] = tested on: MRSA 252; experiment: MIC, broth micro-dilution; assay type: cell-based, Staphylococcus aureus; settings: Staphylococcus aureus, read-out: MIC
Procedure, shortened: as §2

[5] = tested on: Staphylococcus aureus 15981; experiment: Disc diffusion (Kirby-Bauer), zone of inhibition; assay type: cell-based; settings: Staphylococcus aureus 15981; 500 μg/mL; '/' = no zone; read-out: Zone of inhibition
Procedure, shortened: as §1

[6] = tested on: Escherichia coli DH5α; experiment: Disc diffusion (Kirby-Bauer), zone of inhibition; assay type: cell-based; settings: Escherichia coli DH5α; 500 μg/mL; '/' = no zone; read-out: Zone of inhibition
Procedure, shortened: as §1

[7] = tested on: HEK293 cells; experiment: Cytotoxicity assay, resazurin (CO-ADD)
Procedure, shortened: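 HEK293 cells in DMEM with 10% FBS were exposed to compounds at a single concentration of 32 μg/mL for 20 h at 37° C, 5% CO2. Viability read by resazurin fluorescence (2.3 μg/mL final, 3 h; F560/590). CC50 from sigmoidal dose-response fitting.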

[8] = tested on: various Staphylococcus aureus strains; experiment: Disc diffusion, Staphylococcus aureus strain study; assay type: cell-based; settings: Staphylococcus aureus, 500 μg/mL
Procedure, shortened: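 Kirby-Bauer disc diffusion on Mueller-Hinton agar spread with 1:200 dilution of overnight S. aureus cultures (TSB, 37 °C). Discs loaded with 50 μL of compound at 500 μg/mL; zone of inhibition recorded after 24 h at 37 °C.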

[9] = tested on: red blood cells; experiment: Hemolysis assay (CO-ADD); assay type: cell-based; settings: 32 μg/mL highest concentration tested
Description: A problem often encountered by emerging drugs is hemolysis, also known as drug-induced immune hemolytic anemia.

Q: `[C-]#[N+]C=Cc1ccc(O)c(Br)c1` [Compound 14] was tested. Which zone of inhibition at 500 µg/mL [1] did it give?
A: The zone of inhibition at 500 µg/mL was 24 mm.

Q: What about the zone of inhibition at 500 µg/mL [2] of the same molecule?
A: The zone of inhibition at 500 µg/mL was 24 mm.

Q: What about the MIC [3] of the same molecule?
A: The MIC was 242 µg/mL (≈ 1080 µM).

Q: And the MIC [4]?
A: The MIC was 44 µg/mL (≈ 196 µM).

Q: What about the zone of inhibition at 500 µg/mL [5] of the same molecule?
A: Its zone of inhibition at 500 µg/mL is 28 mm.

Q: What about the zone of inhibition at 500 µg/mL [6] of the same molecule?
A: Its zone of inhibition at 500 µg/mL is 26 mm.

Q: And the “Concentration toxic to HEK 293 cells” value ([7]; HEK 293)?
A: The value was greater than 32 µg/mL.

Q: What about the “toxicity towards the HEK293 cell line (in words)” value ([7]; set concentration of 32 μg/mL) of the same molecule?
A: The value was “no toxicity”.

Q: What about the zone of inhibition at 500 µg/mL ([8]; strain ASARM 61) of the same molecule?
A: Its zone of inhibition at 500 µg/mL is 22 mm.

Q: And the zone of inhibition at 500 µg/mL ([8]; strain ASARM 70)?
A: The zone of inhibition at 500 µg/mL was 20 mm.

Q: What about the zone of inhibition at 500 µg/mL ([8]; strain ASARM 71) of the same molecule?
A: Its zone of inhibition at 500 µg/mL is 22 mm.

Q: And the zone of inhibition at 500 µg/mL ([8]; strain ASARM 72)?
A: The zone of inhibition at 500 µg/mL was 20 mm.

Q: What about the zone of inhibition at 500 µg/mL ([8]; strain ASARM 73) of the same molecule?
A: The zone of inhibition at 500 µg/mL was 20 mm.

Q: What about the zone of inhibition at 500 µg/mL ([8]; strain ASARM 75) of the same molecule?
A: Its zone of inhibition at 500 µg/mL is 20 mm.

Q: And the zone of inhibition at 500 µg/mL ([8]; strain ASARM 76)?
A: The zone of inhibition at 500 µg/mL was 22 mm.

Q: And the zone of inhibition at 500 µg/mL ([8]; strain ASARM 77)?
A: Its zone of inhibition at 500 µg/mL is 22 mm.

Q: And the zone of inhibition at 500 µg/mL ([8]; strain ASARM 79)?
A: The zone of inhibition at 500 µg/mL was 24 mm.

Q: What about the zone of inhibition at 500 µg/mL ([8]; strain ASARM 80) of the same molecule?
A: Its zone of inhibition at 500 µg/mL is 25 mm.

Q: What about the zone of inhibition at 500 µg/mL ([8]; strain EOE 3) of the same molecule?
A: The zone of inhibition at 500 µg/mL was 20 mm.

Q: What about the zone of inhibition at 500 µg/mL ([8]; strain EOE 23) of the same molecule?
A: The zone of inhibition at 500 µg/mL was 22 mm.

Q: What about the zone of inhibition at 500 µg/mL ([8]; strain EOE 30) of the same molecule?
A: The zone of inhibition at 500 µg/mL was 22 mm.

Q: And the zone of inhibition at 500 µg/mL ([8]; strain EOE 35)?
A: The zone of inhibition at 500 µg/mL was 18 mm.

Q: What about the zone of inhibition at 500 µg/mL ([8]; strain EOE 41) of the same molecule?
A: The zone of inhibition at 500 µg/mL was 20 mm.

Q: And the zone of inhibition at 500 µg/mL ([8]; strain EOE 42)?
A: Its zone of inhibition at 500 µg/mL is 18 mm.

Q: And the zone of inhibition at 500 µg/mL ([8]; strain EOE 45)?
A: Its zone of inhibition at 500 µg/mL is 20 mm.

Q: What about the zone of inhibition at 500 µg/mL ([8]; strain EOE 52) of the same molecule?
A: The zone of inhibition at 500 µg/mL was 25 mm.

Q: What about the zone of inhibition at 500 µg/mL ([8]; strain EOE 54) of the same molecule?
A: The zone of inhibition at 500 µg/mL was 19 mm.

Q: And the zone of inhibition at 500 µg/mL ([8]; strain EOE 57)?
A: The zone of inhibition at 500 µg/mL was 20 mm.

Q: What about the zone of inhibition at 500 µg/mL ([8]; strain S139_7_7) of the same molecule?
A: Its zone of inhibition at 500 µg/mL is 20 mm.

Q: And the zone of inhibition at 500 µg/mL ([8]; strain S197_1_1)?
A: The zone of inhibition at 500 µg/mL was 25 mm.

Q: And the zone of inhibition at 500 µg/mL ([8]; strain S197_1_8)?
A: The zone of inhibition at 500 µg/mL was 22 mm.

Q: What about the zone of inhibition at 500 µg/mL ([8]; strain S197_1_9) of the same molecule?
A: The zone of inhibition at 500 µg/mL was 22 mm.

Q: And the zone of inhibition at 500 µg/mL ([8]; strain S197_1_10)?
A: The zone of inhibition at 500 µg/mL was 22 mm.

Q: And the zone of inhibition at 500 µg/mL ([8]; strain S295_1_1)?
A: Its zone of inhibition at 500 µg/mL is 22 mm.

Q: What about the zone of inhibition at 500 µg/mL ([8]; strain S295_1_2) of the same molecule?
A: Its zone of inhibition at 500 µg/mL is 14 mm.

Q: And the zone of inhibition at 500 µg/mL ([8]; strain S295_1_3)?
A: Its zone of inhibition at 500 µg/mL is 20 mm.

Q: And the zone of inhibition at 500 µg/mL ([8]; strain S364_5_11)?
A: The zone of inhibition at 500 µg/mL was 24 mm.

Q: And the zone of inhibition at 500 µg/mL ([8]; strain S364_5_12)?
A: The zone of inhibition at 500 µg/mL was 24 mm.

Q: What about the zone of inhibition at 500 µg/mL ([8]; strain Sa_TPS 3026) of the same molecule?
A: The zone of inhibition at 500 µg/mL was 16 mm.

Q: What about the zone of inhibition at 500 µg/mL ([8]; strain Sa_TPS 3072) of the same molecule?
A: Its zone of inhibition at 500 µg/mL is 18 mm.

Q: What about the zone of inhibition at 500 µg/mL ([8]; strain Sa_TPS 3092) of the same molecule?
A: Its zone of inhibition at 500 µg/mL is 24 mm.

Q: What about the zone of inhibition at 500 µg/mL ([8]; strain Sa_TPS 3097) of the same molecule?
A: The zone of inhibition at 500 µg/mL was 18 mm.

Q: And the zone of inhibition at 500 µg/mL ([8]; strain Sa_TPS 3103)?
A: Its zone of inhibition at 500 µg/mL is 26 mm.

Q: And the zone of inhibition at 500 µg/mL ([8]; strain Sa_TPS 3104)?
A: Its zone of inhibition at 500 µg/mL is 22 mm.

Q: What about the zone of inhibition at 500 µg/mL ([8]; strain Sa_TPS 3106) of the same molecule?
A: The zone of inhibition at 500 µg/mL was 20 mm.

Q: What about the zone of inhibition at 500 µg/mL ([8]; strain Sa_TPS 3118) of the same molecule?
A: The zone of inhibition at 500 µg/mL was 18 mm.

Q: What about the zone of inhibition at 500 µg/mL ([8]; strain Sa_TPS 3133) of the same molecule?
A: Its zone of inhibition at 500 µg/mL is 18 mm.

Q: What about the zone of inhibition at 500 µg/mL ([8]; strain Sa_TPS 3134) of the same molecule?
A: The zone of inhibition at 500 µg/mL was 18 mm.

Q: What about the zone of inhibition at 500 µg/mL ([8]; strain USFL 008) of the same molecule?
A: Its zone of inhibition at 500 µg/mL is 17 mm.

Q: And the zone of inhibition at 500 µg/mL ([8]; strain USFL 009)?
A: The zone of inhibition at 500 µg/mL was 16 mm.

Q: And the zone of inhibition at 500 µg/mL ([8]; strain USFL 012)?
A: The zone of inhibition at 500 µg/mL was 20 mm.

Q: And the zone of inhibition at 500 µg/mL ([8]; strain USFL 016)?
A: The zone of inhibition at 500 µg/mL was 18 mm.

Q: What about the zone of inhibition at 500 µg/mL ([8]; strain USFL 018) of the same molecule?
A: Its zone of inhibition at 500 µg/mL is 18 mm.

Q: What about the zone of inhibition at 500 µg/mL ([8]; strain USFL 020) of the same molecule?
A: Its zone of inhibition at 500 µg/mL is 16 mm.

Q: And the zone of inhibition at 500 µg/mL ([8]; strain USFL 021)?
A: Its zone of inhibition at 500 µg/mL is 18 mm.

Q: What about the zone of inhibition at 500 µg/mL ([8]; strain USFL 028) of the same molecule?
A: Its zone of inhibition at 500 µg/mL is 18 mm.

Q: And the zone of inhibition at 500 µg/mL ([8]; strain USFL 035)?
A: Its zone of inhibition at 500 µg/mL is 19 mm.

Q: And the zone of inhibition at 500 µg/mL ([8]; strain USFL 054)?
A: Its zone of inhibition at 500 µg/mL is 18 mm.

Q: And the “Hemolytic activity (HC10)” value [9]?
A: The value was greater than 32 µg/mL.
